Laboratory results as given in the NIST ThermoML archive (doi:10.1021/je060271a).
Several values for one entry are separate records, joined by “and”; a condition that tells them apart may be missing. Equal entries are not always repeated.

Settings: Liquid, Vibrating tube method

CCCCCC(=O)OCC(COC(=O)CCCCC)(COC(=O)CCCCC)COC(=O)CCCCC [pentaerythritol tetrahexanoate]
Settings | mass density
323.15 K, 11949 kPa | 980.8 kg/m3
323.15 K, 11977 kPa | 980.8 kg/m3
323.15 K, 12000 kPa | 980.8 kg/m3
323.15 K, 12028 kPa | 980.8 kg/m3
323.15 K, 12051 kPa | 980.9 kg/m3
323.15 K, 12077 kPa | 980.9 kg/m3
323.15 K, 12104 kPa | 981 kg/m3
323.15 K, 12127 kPa | 980.9 kg/m3
323.15 K, 12155 kPa | 980.9 kg/m3
323.15 K, 12178 kPa | 981 kg/m3
323.15 K, 12205 kPa | 981 kg/m3
323.15 K, 12233 kPa | 980.9 kg/m3
323.15 K, 12257 kPa | 981 kg/m3
323.15 K, 12285 kPa | 981.1 kg/m3
323.15 K, 12310 kPa | 981.2 kg/m3
323.15 K, 12338 kPa | 981.1 kg/m3
323.15 K, 12362 kPa | 981.2 kg/m3
323.15 K, 12390 kPa | 981.1 kg/m3
323.15 K, 12414 kPa | 981 kg/m3
323.15 K, 12442 kPa | 981.2 kg/m3
323.15 K, 12471 kPa | 981.2 kg/m3
323.15 K, 12494 kPa | 981.2 kg/m3
323.15 K, 12523 kPa | 981.3 kg/m3
323.15 K, 12547 kPa | 981.4 kg/m3
323.15 K, 12576 kPa | 981.2 kg/m3
323.15 K, 12605 kPa | 981.4 kg/m3
323.15 K, 12630 kPa | 981.2 kg/m3
323.15 K, 12927 kPa | 981.5 kg/m3
323.15 K, 12950 kPa | 981.5 kg/m3
323.15 K, 12980 kPa | 981.6 kg/m3
323.15 K, 13006 kPa | 981.6 kg/m3
323.15 K, 13029 kPa | 981.6 kg/m3
323.15 K, 13186 kPa | 981.7 kg/m3
323.15 K, 13214 kPa | 981.6 kg/m3
323.15 K, 13237 kPa | 981.6 kg/m3
323.15 K, 13264 kPa | 981.8 kg/m3
323.15 K, 13292 kPa | 981.7 kg/m3
323.15 K, 13315 kPa | 981.8 kg/m3
323.15 K, 13345 kPa | 981.8 kg/m3
323.15 K, 13368 kPa | 981.9 kg/m3
323.15 K, 13396 kPa | 981.8 kg/m3
323.15 K, 13420 kPa | 981.8 kg/m3
323.15 K, 13891 kPa | 982.1 kg/m3
323.15 K, 13918 kPa | 982.1 kg/m3
323.15 K, 13941 kPa | 982.1 kg/m3
323.15 K, 13969 kPa | 982.2 kg/m3
323.15 K, 13992 kPa | 982.2 kg/m3
323.15 K, 14020 kPa | 982.3 kg/m3
323.15 K, 14514 kPa | 982.5 kg/m3
323.15 K, 14565 kPa | 982.6 kg/m3
323.15 K, 14593 kPa | 982.6 kg/m3
323.15 K, 14621 kPa | 982.6 kg/m3
323.15 K, 14645 kPa | 982.6 kg/m3
323.15 K, 14674 kPa | 982.6 kg/m3
323.15 K, 14698 kPa | 982.5 kg/m3
323.15 K, 14726 kPa | 982.7 kg/m3
323.15 K, 14750 kPa | 982.7 kg/m3
323.15 K, 14778 kPa | 982.8 kg/m3
323.15 K, 14807 kPa | 982.7 kg/m3
323.15 K, 14831 kPa | 982.8 kg/m3
323.15 K, 15257 kPa | 983 kg/m3
323.15 K, 15281 kPa | 983.1 kg/m3
323.15 K, 15309 kPa | 983.1 kg/m3
323.15 K, 15339 kPa | 983 kg/m3
323.15 K, 15364 kPa | 983.2 kg/m3
323.15 K, 15393 kPa | 983.1 kg/m3
323.15 K, 15417 kPa | 983.1 kg/m3
323.15 K, 20896 kPa | 986.7 kg/m3
323.15 K, 22666 kPa | 987.8 kg/m3
323.15 K, 28442 kPa | 991.1 kg/m3
323.15 K, 28670 kPa | 991.3 kg/m3
323.15 K, 28695 kPa | 991.4 kg/m3
323.15 K, 28724 kPa | 991.4 kg/m3
323.15 K, 28754 kPa | 991.4 kg/m3
323.15 K, 28783 kPa | 991.4 kg/m3
323.15 K, 28808 kPa | 991.4 kg/m3
323.15 K, 28838 kPa | 991.4 kg/m3
323.15 K, 28867 kPa | 991.4 kg/m3
323.15 K, 28897 kPa | 991.6 kg/m3
323.15 K, 28927 kPa | 991.5 kg/m3
323.15 K, 28957 kPa | 991.6 kg/m3
323.15 K, 28982 kPa | 991.5 kg/m3
323.15 K, 29012 kPa | 991.5 kg/m3
323.15 K, 29044 kPa | 991.5 kg/m3
323.15 K, 29070 kPa | 991.5 kg/m3
323.15 K, 29101 kPa | 991.7 kg/m3
323.15 K, 29132 kPa | 991.7 kg/m3
323.15 K, 29158 kPa | 991.6 kg/m3
323.15 K, 29554 kPa | 991.8 kg/m3
323.15 K, 29577 kPa | 991.9 kg/m3
323.15 K, 29762 kPa | 992 kg/m3
323.15 K, 29785 kPa | 992 kg/m3
323.15 K, 29812 kPa | 992 kg/m3
323.15 K, 29839 kPa | 992.1 kg/m3
323.15 K, 29866 kPa | 992.2 kg/m3
323.15 K, 29893 kPa | 992.1 kg/m3
323.15 K, 29921 kPa | 992 kg/m3
323.15 K, 29944 kPa | 992 kg/m3
323.15 K, 29972 kPa | 992.2 kg/m3
323.15 K, 30466 kPa | 992.5 kg/m3
323.15 K, 30496 kPa | 992.4 kg/m3
323.15 K, 30520 kPa | 992.4 kg/m3
323.15 K, 30549 kPa | 992.5 kg/m3
323.15 K, 31454 kPa | 992.9 kg/m3
323.15 K, 31474 kPa | 992.9 kg/m3
323.15 K, 31495 kPa | 993 kg/m3
323.15 K, 31516 kPa | 993 kg/m3
323.15 K, 31533 kPa | 993 kg/m3
323.15 K, 31653 kPa | 993.1 kg/m3
323.15 K, 31674 kPa | 993.2 kg/m3
323.15 K, 31695 kPa | 993.2 kg/m3
323.15 K, 31717 kPa | 993.1 kg/m3
323.15 K, 31734 kPa | 993.2 kg/m3
323.15 K, 31755 kPa | 993.1 kg/m3
323.15 K, 32384 kPa | 993.6 kg/m3 and 993.5 kg/m3
323.15 K, 32385 kPa | 993.5 kg/m3
323.15 K, 32386 kPa | 993.5 kg/m3
323.15 K, 32387 kPa | 993.6 kg/m3
323.16 K, 578.8 kPa | 973 kg/m3
323.16 K, 580.8 kPa | 973.2 kg/m3
323.16 K, 582.6 kPa | 973.1 kg/m3
323.16 K, 584.7 kPa | 973 kg/m3
323.16 K, 586.6 kPa | 973 kg/m3
323.16 K, 588.7 kPa | 973 kg/m3
323.16 K, 590.7 kPa | 973.3 kg/m3
323.16 K, 714.1 kPa | 973.2 kg/m3
323.16 K, 716.9 kPa | 973.2 kg/m3
323.16 K, 718.8 kPa | 973.3 kg/m3
323.16 K, 721.8 kPa | 973.3 kg/m3
323.16 K, 724 kPa | 973.2 kg/m3
323.16 K, 727.1 kPa | 973.1 kg/m3
323.16 K, 729.4 kPa | 973.2 kg/m3
323.16 K, 732.2 kPa | 973.2 kg/m3
323.16 K, 735.1 kPa | 973.1 kg/m3
323.16 K, 737.9 kPa | 973.2 kg/m3
323.16 K, 1019.3 kPa | 973.3 kg/m3
323.16 K, 1022.8 kPa | 973.4 kg/m3
323.16 K, 1026.6 kPa | 973.4 kg/m3
323.16 K, 1030.3 kPa | 973.5 kg/m3
323.16 K, 1034.3 kPa | 973.3 kg/m3
323.16 K, 1037.9 kPa | 973.5 kg/m3
323.16 K, 1042.3 kPa | 973.3 kg/m3
323.16 K, 1045.6 kPa | 973.4 kg/m3
323.16 K, 1049.9 kPa | 973.4 kg/m3
323.16 K, 1053.7 kPa | 973.4 kg/m3
